# From paper PMC10762035, “Molecular basis of human trace amine-associated receptor 1 activation” (Nature Communications, 2024)
# Several values for one entry are separate records, joined by “and”; a condition that tells them apart may be missing. Identical values can stand only once.
# Columns and labels:
# hTA1 [1] = target: T1, hTA1 (Homo sapiens, UniProt Q96RJ0); assay: Screen of 89 aminergic compounds at 10 µM, cAMP accumulation in HEK293T cells; type: cell-based; conditions: 10 µM of compound; HEK293T; threshold log2-fold change of 2;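 further: HEK293T cells co-transfected with hTA1 and GloSensor cAMP reporter, cAMP accumulation detected by luminescence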
# T1 construct: expressed in transfected cells; host or cells: HEK293T
# T1 sequence (Q96RJ0 1-339): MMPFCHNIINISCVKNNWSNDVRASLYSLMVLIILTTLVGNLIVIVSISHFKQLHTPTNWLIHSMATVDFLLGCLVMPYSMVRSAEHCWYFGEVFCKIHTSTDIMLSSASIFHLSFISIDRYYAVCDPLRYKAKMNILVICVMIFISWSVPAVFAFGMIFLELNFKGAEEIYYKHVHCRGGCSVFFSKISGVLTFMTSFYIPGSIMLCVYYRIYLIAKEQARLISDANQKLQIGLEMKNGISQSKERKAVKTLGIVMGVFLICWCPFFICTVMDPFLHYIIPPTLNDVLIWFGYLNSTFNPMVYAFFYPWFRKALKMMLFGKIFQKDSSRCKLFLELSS
# hTA1 [2] = target: T1, hTA1; assay: GloSensor cAMP accumulation assay, concentration response, wild-type hTA1 in transfected HEK293T cells; type: cell-based; conditions: log[Compound], replicate wells;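 further: luminescence read after 30 min compound exposure at room temperature in cells preloaded with D-Luciferin, reflecting Gs-driven cAMP rise, efficacy scaled to the maximal β-PEA response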
Structure (SMILES),increase of signal over DMSO-treated controls (hTA1 activation) (hTA1 [1]),Normalized Luminescence Counts for WT hTA1 (hTA1 [2]; M = -5),Normalized Luminescence Counts for WT hTA1 (hTA1 [2]; M = -5.522),Normalized Luminescence Counts for WT hTA1 (hTA1 [2]; M = -6),Normalized Luminescence Counts for WT hTA1 (hTA1 [2]; M = -6.522),Normalized Luminescence Counts for WT hTA1 (hTA1 [2]; M = -7),Normalized Luminescence Counts for WT hTA1 (hTA1 [2]; M = -7.522),Normalized Luminescence Counts for WT hTA1 (hTA1 [2]; M = -8),Normalized Luminescence Counts for WT hTA1 (hTA1 [2]; M = -8.522),Normalized Luminescence Counts for WT hTA1 (hTA1 [2]; M = -9),Normalized Luminescence Counts for WT hTA1 (hTA1 [2]; M = -9.522),Normalized Luminescence Counts for WT hTA1 (hTA1 [2]; M = -10),Normalized Luminescence Counts for WT hTA1 (hTA1 [2]; M = -10.522),Normalized Luminescence Counts for WT hTA1 (hTA1 [2]; M = -11),Normalized Luminescence Counts for WT hTA1 (hTA1 [2]; M = -11.522),Normalized Luminescence Counts for WT hTA1 (hTA1 [2]; M = -12),Normalized Luminescence Counts for WT hTA1 (hTA1 [2]; M = -12.522)
CNC[C@H](O)c1ccc(O)c(O)c1 [epinephrine],≥ 4 fold,-0.5341 and -0.7316 and 0.493,-0.1785 and 2.231 and -0.218,0.4535 and -0.139,0.493 and 1.046 and -0.7316,-1.759 and -1.996 and -0.9686,-2.549 and -2.2723 and -2.114,-2.035 and -0.8106 and -2.154,-1.917 and -1.68 and -2.233,-2.391 and -2.075 and -2.628,-2.588 and -2.667 and -2.549,-2.865 and -2.47 and -2.391,-2.628 and -2.193 and -2.549,-2.3118 and -2.193 and -2.114,-2.391 and -1.4427 and -1.956,-2.233 and -1.4427 and -1.917,-2.075 and -2.114 and -1.798
CN1C[C@H](C(=O)N[C@]2(C)O[C@@]3(O)[C@@H]4CCCN4C(=O)[C@H](Cc4ccccc4)N3C2=O)C=C2c3cccc4[nH]cc(c34)C[C@H]21 [ergotamine],≥ 4 fold,44.5775 and 42.7529 and 37.8036,33.1851 and 35.1808 and 34.0176,22.5339 and 18.3829 and 18.9303,13.3539 and 12.6012 and 11.6889,5.28 and 4.447 and 4.037,2.783 and 2.007 and 2.3948,1.311 and 0.7184 and 0.9351,1.095 and 0.9921 and 1.163,0.7184 and 0.3649 and 0.5816,0.2737 and 0.2167 and 0.1254,0.1482 and 0.4219 and 0.2395,0.1825 and 0.5018 and 0.1939,0.114 and 0.536 and 0.4333,0.6956 and 0.3649 and 0.8895,0.479 and 0.6728 and 0.4562,0.3991 and 0.593 and 0.5018
C[C@H]1CNCCc2ccc(Cl)cc21 [lorcaserin],≥ 4 fold,36.902 and 34.0112 and 1.008 and 64.4771 and 65.1158 and 60.8849,12.6245 and 12.4103 and 0.5526 and 38.1001 and 37.3361 and 35.7852,4.327 and 4.728 and 0.4991 and 15.3153 and 15.7258 and 16.125,2.1854 and 0.9809 and 0.8203 and 4.949 and 4.904 and 5.611,0.4723 and 0.2314 and 1.222 and 2.349 and 1.654 and 2.0983,-0.3039 and -0.5448 and 0.6329 and 0.4676 and 0.5018 and 0.5816,0.7132 and 0.4188 and 1.757 and 0.2053 and 0.05702 and 0.536,-0.06302 and 0.9006 and 0.8738 and 0.593 and 0.5702 (2×),0.2582 and -0.1433 and 0.5258 and 0.3193 and 0.2737 and 0.3877,0.2582 and -0.4913 and 0.7132 and 0.3877 and 0.2851 and 0.2965,-0.06302 and -0.4378 and 0.6865 and 0.4904 and 0.2737 and 0.2851,-0.5448 and -0.8928 and 1.141 and 0.1825 and 0.2281 and -0.06842,0.1511 and -0.08979 and 0.7668 and -0.1368 and -0.1254 and -0.1482,0.9809 and -0.009489 and 0.6329 and 0.3991 and 0.3421 and 0.2167,0.6865 and 0.6329 and 1.195 and 0.1825 and 0.0114 and -0.07983,0.4455 and 0.4723 and 1.141 and 0.03421 and 0.0114 and -0.114
